Data published in the CheMixHub ionic liquid set.

Assay: xn = mol fraction of the nth substance listed

CC(C)C[C@H](N)C(=O)[O-].CCCC[P+](CCCC)(CCCC)CCCN + O
333.15 K, 101 kPa, x2 = 0
Conditions | electrical conductivity [S/m] | viscosity [mPa·s]
– | 0.0413 | 130.5

CCCCCCCCCCCCCCCC[P+](CCCC)(CCCC)CCCC.[Br-] + O
300 K, 101 kPa
Conditions | electrical conductivity [S/m]
x2 = 0.201 | 0.00035
x2 = 0.302 | 0.00035
x2 = 0.402 | 0.00035
x2 = 0.502 | 0.00035

CCn1cc[n+](CC)c1.O=S(=O)([N-]S(=O)(=O)C(F)(F)F)C(F)(F)F + O
100 kPa, x2 = 0.2772
Conditions | viscosity [mPa·s]
318.15 K | 11.04
358.15 K | 4.96

Cn1cc[n+](CCO)c1.O=C([O-])C(F)(F)C(F)(F)C(F)(F)C(F)(F)F + O
101 kPa
Conditions | electrical conductivity, 298.15 K [S/m] | viscosity, 298.15 K [mPa·s] | viscosity, 308.15 K [mPa·s] | viscosity, 318.15 K [mPa·s]
x1 = 0.01954 | 1.86 | 2.373 | 1.881 | 1.521
x1 = 0.0234 | 1.85 | 2.72 | 2.129 | 1.713
x1 = 0.02752 | 1.82 | 3.1 | 2.403 | 1.914
x1 = 0.02972 | 1.79 | 3.29 | 2.55 | 2.027
x1 = 0.03222 | 1.76 | 3.67 | 2.8 | 2.204
x1 = 0.03772 | 1.67 | 4.35 | 3.3 | 2.59
x1 = 0.04078 | 1.61 | 4.62 | 3.5 | 2.73
x1 = 0.04409 | 1.55 | 4.98 | 3.72 | 2.87
x1 = 0.05152 | 1.42 | 6.18 | 4.57 | 3.51
x1 = 0.05575 | 1.35 | 6.8 | 5 | 3.8
x1 = 0.0602 | 1.27 | 7.62 | 5.55 | 4.2
x1 = 0.06471 | 1.2 | 8.23 | 5.97 | 4.49
x1 = 0.07633 | 1.04 | 9.67 | 6.91 | 5.16
x1 = 0.082 | 0.97 | 10.72 | 7.6 | 5.62
x1 = 0.08895 | 0.89 | 12.37 | 8.65 | 6.3
x1 = 0.09727 | 0.81 | 13.43 | 9.39 | 6.84
x1 = 0.1069 | 0.73 | 15.01 | 10.41 | 7.54
x1 = 0.1275 | 0.6 | 18.85 | 12.87 | 9.24
x1 = 0.1399 | 0.54 | 22.47 | 15.15 | 10.73
x1 = 0.1574 | 0.465 | 26.8 | 17.82 | 12.47
x1 = 0.1727 | 0.415 | 29.6 | 19.6 | 13.63
x1 = 0.2189 | 0.309 | 38.1 | 24.8 | 16.97
x1 = 0.2539 | 0.257 | 43.9 | 28.2 | 19.16
x1 = 0.2952 | 0.213 | 52.2 | 33.1 | 22.22
x1 = 0.3469 | 0.173 | 64.4 | 40.2 | 26.6
x1 = 0.4176 | 0.134 | 86.6 | 52.8 | 34.3
x1 = 0.5205 | 0.097 | 131.5 | 77.3 | 48.9
x1 = 0.7217 | 0.053 | 232 | 129.6 | 78.3
x1 = 1 | 0.0315 | 713 | 351 | 190.8

CCCCCCCCOS(=O)(=O)[O-].CC[n+]1ccn(C)c1 + O + O=S(=O)([O-])[O-].[K+].[K+]
101 kPa, frequency 0.0005 MHz, x2 = 0.7992, x3 = 0.000271
Conditions | electrical conductivity [S/m]
283.15 K | 0.565
285.15 K | 0.611
288.15 K | 0.685
291.15 K | 0.763
293.15 K | 0.818
298.15 K | 0.965
303.15 K | 1.13
313.15 K | 1.49
323.15 K | 1.91
333.15 K | 2.43
343.15 K | 2.94
353.15 K | 3.49
358.15 K | 3.81
363.15 K | 4.13

101 kPa, x2 = 0.7992, x3 = 0.000271
Conditions | viscosity [mPa·s]
298.15 K | 70.4
303.15 K | 54.1
308.15 K | 42.26
318.15 K | 26.98
328.15 K | 18.12
338.15 K | 12.69

CCCCCCCCOS(=O)(=O)[O-].CC[n+]1ccn(C)c1 + O + O=S(=O)([O-])[O-].[Li+].[Li+]
101 kPa, frequency 0.0005 MHz, x2 = 0.8284, x3 = 0.003275
Conditions | electrical conductivity [S/m]
283.15 K | 0.479
285.15 K | 0.518
287.15 K | 0.561
288.15 K | 0.582
289.15 K | 0.605
291.15 K | 0.649
293.15 K | 0.698
298.15 K | 0.83
303.15 K | 0.975
313.15 K | 1.31
323.15 K | 1.68
333.15 K | 2.1
343.15 K | 2.62
348.15 K | 2.87
358.15 K | 3.41
363.15 K | 3.68

101 kPa, x2 = 0.8284, x3 = 0.003275
Conditions | viscosity [mPa·s]
293.15 K | 101
296.15 K | 85.2
298.15 K | 76.4
303.15 K | 58.9
308.15 K | 46.1
318.15 K | 29.59
328.15 K | 19.97
338.15 K | 14.04

CCCCCCCCOS(=O)(=O)[O-].CC[n+]1ccn(C)c1 + O + O=S(=O)([O-])[O-].[Na+].[Na+]
101 kPa, frequency 0.0005 MHz, x2 = 0.7732, x3 = 0.0003656
Conditions | electrical conductivity [S/m]
283.15 K | 0.483
285.15 K | 0.523
288.15 K | 0.59
291.15 K | 0.655
293.15 K | 0.699
298.15 K | 0.829
303.15 K | 0.977
313.15 K | 1.35
323.15 K | 1.68
333.15 K | 2.11
343.15 K | 2.63
353.15 K | 3.13
358.15 K | 3.41
363.15 K | 3.72

101 kPa, x2 = 0.7732, x3 = 0.0003656
Conditions | viscosity [mPa·s]
295.65 K | 86.6
298.15 K | 75.4
303.15 K | 58
308.15 K | 45.4
318.15 K | 29.06
328.15 K | 19.55
338.15 K | 13.72

CCCCCC[n+]1ccn(C)c1.O=S(=O)([N-]S(=O)(=O)C(F)(F)F)C(F)(F)F + O=C1CCCO1
100 kPa, frequency 0.005 MHz
Conditions | electrical conductivity [S/m]
293.15 K, x2 = 0.2973 | 0.296
293.15 K, x2 = 0.9001 | 1.11
293.15 K, x2 = 0.9493 | 0.746
298.15 K, x2 = 0.1076 | 0.261
298.15 K, x2 = 0.9493 | 0.819
303.15 K, x2 = 0 | 0.273
303.15 K, x2 = 0.4956 | 0.657
303.15 K, x2 = 0.9001 | 1.34
308.15 K, x2 = 0 | 0.33
308.15 K, x2 = 0.1076 | 0.387
308.15 K, x2 = 0.2973 | 0.514
308.15 K, x2 = 0.9001 | 1.45
313.15 K, x2 = 0.1076 | 0.459
313.15 K, x2 = 0.2973 | 0.596
313.15 K, x2 = 0.6996 | 1.31
313.15 K, x2 = 0.8456 | 1.61
318.15 K, x2 = 0.2973 | 0.687
318.15 K, x2 = 0.8456 | 1.73
318.15 K, x2 = 0.9493 | 1.11
323.15 K, x2 = 0 | 0.553
323.15 K, x2 = 0.1076 | 0.624
323.15 K, x2 = 0.2973 | 0.788
323.15 K, x2 = 0.8001 | 1.85
323.15 K, x2 = 0.8456 | 1.88

CCC[P+](c1ccccc1)(c1ccccc1)c1ccccc1.[Br-] + O=S=O + OCCO
100 kPa
Conditions | viscosity [mPa·s]
303.15 K, x2 = 0.01565, x3 = 0.9603 | 20.6
313.15 K, x2 = 0.01166, x3 = 0.9642 | 17
323.15 K, x2 = 0.009018, x3 = 0.9668 | 14.1
333.15 K, x2 = 0.007838, x3 = 0.968 | 11.6
343.15 K, x2 = 0.006951, x3 = 0.9688 | 10.5

CCCCCC[n+]1ccn(C)c1.[Br-] + OC1OC[C@@H](O)[C@H](O)[C@H]1O + O
298.15 K, 101 kPa
Conditions | viscosity [mPa·s]
x2 = 0, x1 = 0.001844 | 0.948
x2 = 0, x1 = 0.003654 | 1.005
x2 = 0, x1 = 0.005425 | 1.053
x2 = 0, x1 = 0.007153 | 1.101

CCC[P+](c1ccccc1)(c1ccccc1)c1ccccc1.[Br-] + OCCO
100 kPa, x2 = 0.9756
Conditions | viscosity [mPa·s]
303.15 K | 20.5
313.15 K | 17.1
323.15 K | 14
333.15 K | 11.6
343.15 K | 10
353.15 K | 9.1

CCCCCC[n+]1ccn(C)c1.[Br-] + OC[C@H]1O[C@@](CO)(O[C@H]2O[C@H](CO)[C@@H](O)[C@H](O)[C@H]2O)[C@@H](O)[C@@H]1O + O
viscosity [mPa·s], 100 kPa
Conditions | 288.15 K | 298.15 K | 308.15 K | 318.15 K
x2 = 0.0009263, x1 = 0.001797 | 1.271 | 0.986 | 0.785 | 0.651
x2 = 0.000945, x1 = 0.003588 | 1.33 | 1.022 | 0.827 | 0.683
x2 = 0.001856, x1 = 0.001795 | 1.334 | 1.034 | 0.826 | 0.681
x2 = 0.001901, x1 = 0.003584 | 1.403 | 1.07 | 0.87 | 0.711
x2 = 0.001946, x1 = 0.005366 | 1.495 | 1.142 | 0.891 | 0.74
x2 = 0.002732, x1 = 0.001794 | 1.394 | 1.074 | 0.859 | 0.711
x2 = 0.002803, x1 = 0.003581 | 1.468 | 1.123 | 0.904 | 0.74
x2 = 0.002858, x1 = 0.005362 | 1.568 | 1.191 | 0.949 | 0.78
x2 = 0.003653, x1 = 0.001792 | 1.453 | 1.124 | 0.897 | 0.735
x2 = 0.003711, x1 = 0.003578 | 1.538 | 1.173 | 0.941 | 0.775
x2 = 0.003775, x1 = 0.005357 | 1.637 | 1.245 | 0.99 | 0.807
x2 = 0.004453, x1 = 0.003575 | 1.596 | 1.222 | 0.975 | 0.805
x2 = 0.004552, x1 = 0.005352 | 1.699 | 1.293 | 1.023 | 0.834
x2 = 0.005421, x1 = 0.001789 | 1.601 | 1.229 | 0.975 | 0.793
x2 = 0.005541, x1 = 0.003571 | 1.672 | 1.287 | 1.018 | 0.835
x2 = 0.005596, x1 = 0.005347 | 1.794 | 1.365 | 1.078 | 0.875
x2 = 0.006166, x1 = 0.001788 | 1.649 | 1.272 | 1.01 | 0.82
x2 = 0.006277, x1 = 0.003569 | 1.745 | 1.342 | 1.061 | 0.868
x2 = 0.006372, x1 = 0.005343 | 1.862 | 1.416 | 1.114 | 0.906
x2 = 0.007317, x1 = 0.001786 | 1.761 | 1.347 | 1.059 | 0.863
x2 = 0.007401, x1 = 0.005337 | 1.984 | 1.498 | 1.184 | 0.952
x2 = 0.007611, x1 = 0.003564 | 1.874 | 1.438 | 1.13 | 0.917
x2 = 0.00788, x1 = 0.001785 | 1.826 | 1.395 | 1.088 | 0.894
x2 = 0.008047, x1 = 0.003562 | 1.908 | 1.463 | 1.152 | 0.928
x2 = 0.008846, x1 = 0.005329 | 2.121 | 1.595 | 1.25 | 1.009

CCCCCC[n+]1ccn(C)c1.[I-] + [I-].[Li+]
101 kPa, frequency 0.03 MHz, x1 = 0.59
Conditions | electrical conductivity [S/m]
288.1 K | 0.000226
293 K | 0.000466
298.1 K | 0.000891
308.1 K | 0.0032
313 K | 0.00537
318.1 K | 0.00863

viscosity [mPa·s], 101 kPa
Conditions | 298.1 K | 303 K | 308.1 K | 328.1 K | 368.1 K
x1 = 0.59 | 15200 | – | 4263 | – | –
x1 = 1 | – | 1175 | – | 213 | 38.5
